In paper PMC11585924, “Direct measurements of neurosteroid binding to specific sites on GABAA receptors” (British journal of pharmacology, 2024):
Several values for one entry are separate records, joined by “and”; a condition that tells them apart may be missing. Identical values can stand only once. Entries after “also recorded” stand apart in the source; their conditions may differ. Like-named read-outs stand apart in the source and are kept apart here.

Columns and labels:
ELIC-α1GABAAR [1] = target: T1, ELIC-α1GABAAR (Homo sapiens, UniProt P14867); assay type: binding
T1 sequence (P14867 other isoform, or with tags, fused parts or gaps): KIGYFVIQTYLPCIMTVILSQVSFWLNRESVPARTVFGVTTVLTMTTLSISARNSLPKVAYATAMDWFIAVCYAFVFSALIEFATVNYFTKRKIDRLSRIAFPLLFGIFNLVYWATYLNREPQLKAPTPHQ
T1 sequence (P0C7B7 1-198, further chain): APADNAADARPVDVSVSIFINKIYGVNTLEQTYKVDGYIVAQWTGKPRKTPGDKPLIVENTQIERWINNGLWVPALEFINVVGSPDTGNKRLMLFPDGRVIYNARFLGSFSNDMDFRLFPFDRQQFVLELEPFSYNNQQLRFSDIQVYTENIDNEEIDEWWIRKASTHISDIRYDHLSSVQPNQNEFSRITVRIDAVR
Method: One hundred microlitres of ELIC-α1GABAAR (0.3 μM) was transferred into a 50-μl window quartz cuvette maintained at 4°C, and NaI was added to the protein sample to a final concentration of 100 mM and incubated for 10 min. MQ290 was then added at a concentration of 3 μM for 3α-OH NS inhibition curves or 1 μM for 3β-OH NS inhibition curves and incubated for 30 min. One-microlitre aliquots of 3α-OH and 3β-OH NS from their corresponding stock solutions (prepared in Buffer A + 0.015% DDM) were added to achieve concentrations between 0.01 and 30 μM. The background emission spectra of ligands alone were obtained for each ligand concentration in the absence of protein and were subtracted from the protein-ligand emission spectra to yield background subtracted data. The MQ290 FRET spectra for different ligand concentrations were estimated using the method described above. The 370-nm intensities of the FRET spectra were plotted against ligand concentration and fitted to a four-parameter logistic curve to obtain IC50 data (GraphPad Software version 9.4.0, San Diego, CA). Ki values were calculated using the relationship: Ki=IC50/1+LT/Kd
where LT is the concentration of MQ290 and Kd was determined from the MQ290 binding curve.

α1β3 GABAA receptors = target: T2, α1β3 GABAA receptors (Homo sapiens, UniProt P14867+P28472); assay: Two-electrode voltage clamp of GABA-elicited currents in Xenopus oocytes; assay type: cell-based; settings: for potentiation of GABA-elicited currents: low GABA, wild-type α1β3
T2 construct: expressed in transfected cells; host or cells: Xenopus laevis oocytes, cRNA injected 5:1 (α1:β3)
T2 sequence (P14867 28-456): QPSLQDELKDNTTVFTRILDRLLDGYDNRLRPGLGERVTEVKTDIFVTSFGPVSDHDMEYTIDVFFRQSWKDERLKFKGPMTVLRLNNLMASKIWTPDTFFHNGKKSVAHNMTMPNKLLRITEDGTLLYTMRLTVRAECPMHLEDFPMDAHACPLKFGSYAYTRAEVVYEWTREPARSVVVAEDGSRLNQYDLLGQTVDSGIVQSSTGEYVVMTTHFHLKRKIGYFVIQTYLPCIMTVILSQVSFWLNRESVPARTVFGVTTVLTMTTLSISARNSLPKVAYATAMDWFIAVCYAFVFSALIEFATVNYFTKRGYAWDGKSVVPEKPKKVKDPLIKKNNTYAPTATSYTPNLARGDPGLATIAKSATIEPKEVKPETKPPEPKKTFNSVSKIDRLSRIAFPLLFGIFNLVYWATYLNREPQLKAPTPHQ
T2 sequence (P28472 26-473): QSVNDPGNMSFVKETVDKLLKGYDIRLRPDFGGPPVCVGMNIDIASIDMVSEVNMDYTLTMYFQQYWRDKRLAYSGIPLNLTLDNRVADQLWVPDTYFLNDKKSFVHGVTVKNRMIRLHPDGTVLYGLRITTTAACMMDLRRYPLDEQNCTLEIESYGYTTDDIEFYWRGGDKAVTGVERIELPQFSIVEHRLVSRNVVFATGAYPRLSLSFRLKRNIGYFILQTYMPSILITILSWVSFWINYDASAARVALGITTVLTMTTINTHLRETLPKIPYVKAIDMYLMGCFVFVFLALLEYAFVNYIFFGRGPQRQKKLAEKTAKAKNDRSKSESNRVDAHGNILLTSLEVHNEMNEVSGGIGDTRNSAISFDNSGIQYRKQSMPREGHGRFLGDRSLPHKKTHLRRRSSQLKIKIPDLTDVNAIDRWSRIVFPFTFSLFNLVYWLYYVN
Method: (§1) Receptor expression and electrophysiological recordings were conducted as described in detail previously ([Sugasawa et al., 2020]). In brief, α1β3 GABAA receptors were expressed in oocytes from the African clawed frog (X. laevis). The wild-type α1 and β3 subunits were of human origin (Genbank accession numbers NM_000806.5 and NM_000814.5, respectively). The α1 clone containing the Q-to-L mutation to the classic neurosteroid binding site ([Hosie et al., 2006]) was of rat origin. (The glutamine residue in ELIC-α1GABAAR is Q242, whereas the corresponding residue in rat α1 is Q241. For simplicity, the residue is referred to as Q242 for both rat and ELIC-α1GABAAR.) The oocytes were purchased as quarter ovaries from Xenopus1 (Dexter, MI, USA). Following digestion in 2% w/v (mg·ml^−1) collagenase A, the oocytes were injected with a total of 12 ng cRNA per oocyte in a 5:1 ratio (α1:β3) and incubated at 15°C for 2–3 days prior to electrophysiological recordings in ND96 (96-mM NaCl, 2-mM KCl, 1.8-mM CaCl2, 1-mM MgCl2, 5-mM HEPES; pH 7.4) supplemented with 100 U·ml^−1 penicillin and 100 μg·ml^−1 streptomycin.
(§2) Electrophysiological recordings were conducted at ≈22°C using standard two-electrode voltage clamp. The voltage and current electrodes (G120F-4, OD = 1.20 mm, ID = 0.69 mm; Warner Instruments, Hamden, CT, USA) were filled with 3-M KCl and had resistances of 0.3–1 MΩ. The oocytes were clamped at −60 mV. The chamber (RC-1Z; Warner Instruments) was perfused with ND96 at 5–8 ml·min^−1. Solutions were gravity-applied. The current responses were amplified with an Axoclamp 900A (Molecular Devices, San Jose, CA, USA) or OC-725C amplifier (Warner Instruments), digitized with a Digidata 1200 series digitizer (Molecular Devices) and stored on PC hard drive using pClamp (Molecular Devices; RRID:SCR_011323). Current amplitudes were determined using Clampfit (Molecular Devices).
A standard experiment consisted of a several-minute long applications of GABA followed immediately by a co-application of GABA + modulator and a wash in GABA. For normalization purposes, each cell was exposed to the combination of saturating (1-mM) GABA + 50-μM propofol, assumed to fully activate all receptors in the cell ([Eaton et al., 2016]).

[2] = tested on: T3, α1^Q242Lβ3 GABAA receptors; assay: Two-electrode voltage clamp, α1(Q242L) mutant receptors in Xenopus oocytes; assay type: cell-based, rat α1, human β3; settings: low GABA; α1(Q242L)β3
T3 construct: expressed in transfected cells; host or cells: Xenopus laevis oocytes, cRNA injected 5:1 (α1:β3)
Method: as §1, §2
A standard experiment consisted of a several-minute long applications of GABA followed immediately by a co-application of GABA + modulator and a wash in GABA. […]

ELIC-α1^W246LGABAAR = ELIC-α1^W246LGABAAR (Homo sapiens, UniProt P14867, W273L); assay: MQ290 FRET in W246L receptors; assay type: binding; settings: W246L vs WT
Sequence of ELIC-α1^W246LGABAAR (P14867 other isoform, or with tags, fused parts or gaps W273L): as the sequence (P14867 other isoform, or with tags, fused parts or gaps) above, with W25L counted along it
Sequence of ELIC-α1^W246LGABAAR (P0C7B7 1-198, further chain): as the sequence (P0C7B7 1-198, further chain) above
Method: (§3) To monitor binding of MQ290 to ELIC-α1GABAAR, 100 μl of ELIC-α1GABAAR (0.3 μM) was transferred into a 50-μl window quartz cuvette that was placed in a cuvette holder. The temperature of the cuvette was maintained at 4°C. NaI (final concentration = 100 mM) was added to the protein sample and incubated for 10 min to reduce the emission of hydrophilic tryptophan residues. One-microlitre aliquots of 100× stock solutions of MQ290 (prepared in Buffer A + 0.015% DDM) were sequentially added to the protein sample and incubated for 30 min after each addition. Because MQ290 alone absorbs at 280 nm, emission spectrum (background spectrum) of MQ290 in the absence of protein was also obtained. The MQ290 background spectra were subtracted from the protein-MQ290 emission spectra to obtain the background-corrected spectra and were smoothened using the Savitzky–Golay method before analysis.
(§4) The ELIC-α1GABAAR emission spectrum obtained before the addition of MQ290 was used as the reference to estimate the contribution of ELIC-α1GABAAR tryptophan emission in the presence of MQ290. […] The calculated ELIC-α1GABAAR tryptophan emission spectrum was then subtracted from the background-corrected spectrum to obtain the emission spectrum of the signal resulting from energy transfer (FRET spectrum) from tryptophan to MQ290 (Figure S6). […]

ELIC-α1^Q242LGABAAR = assay: MQ290 FRET in Q242L receptors; assay type: binding, human; settings: Q242L vs WT
Method: as §3, §4

ELIC-α1GABAAR [3] = target: T1, ELIC-α1GABAAR; assay: KK200 photolabelling competition, middle-down MS; assay type: binding; settings: 3 μM KK200, 30 μM competitor
Method: The synthesis of the NS photolabelling reagent KK200 is detailed in previous reports ([W. W. L. Cheng et al., 2018]; [Jiang et al., 2016]). […] The samples were then irradiated in a quartz cuvette for 5 min, using a photoreactor emitting light at >320 nm ([Germann et al., 2021]). Sample preparation for tryptic digestion and analysis by LC–MS was performed as previously described ([Sugasawa et al., 2019]). Peptides were separated on a home-packed PLRP-S (Agilent, Santa Clara, CA, USA) column (10 cm × 75 μm, 300 Å) using a 135-min gradient from 10% to 90% acetonitrile and introduced to an Orbitrap-Elite mass spectrometer (Thermo Fisher Scientific, Waltham, MA, USA; RRID:SCR_020548) at 800 nl·min^−1 with a nanospray source. MS acquisition was set as an MS1 Orbitrap scan (resolution of 60,000) followed by top 20 MS2 Orbitrap scans (resolution of 15,000) using data-dependent acquisition and exclusion of singly charged precursors. Fragmentation was performed using high-energy dissociation with normalized energy of 35%. Analysis of data sets was performed using Xcalibur (Thermo Fisher Scientific, Waltham, MA, USA; RRID: SCR_014593) to manually search for TM1, TM2, TM3 or TM4 tryptic peptides with or without NS photolabelling modifications. Photolabelling efficiency was estimated by generating extracted chromatograms of unlabelled and labelled peptides, determining the area under the curve, and calculating the (area of labelled peptide/(area of unlabelled + area of labelled peptide). MS2 spectra of photolabelled TMD peptides were analysed by manual assignment of fragment ions with and without photolabelling modification.

ELIC-α1GABAAR [4] = target: T1, ELIC-α1GABAAR; assay type: binding; remark: listed apart in the source
Method: Excitation and emission spectra were obtained using a FluoroMax Plus-C fluorometer (Horiba Instruments, Tokyo, Japan). For obtaining emission spectra, 280 nm was used as the excitation wavelength and emission was recorded from 300 to 450 nm. The excitation and emission slit widths used for obtaining emission spectra were 1 and 5 nm. For protein-ligand binding experiments, three emission spectra were obtained and averaged after each addition of a ligand or sodium iodide (NaI). The averaged spectra were smoothed using the Savitzky–Golay method before analysis.
One hundred microlitres of purified ELIC-α1GABAAR (0.3 μM in Buffer A + 0.015% DDM) was transferred into a 50-μl window quartz cuvette (Starna Cells, Atascadero, CA, USA), which was placed in a cuvette holder maintained at 4°C. […] Two microlitres of NaI (AK Scientific, Union City, CA, USA; 5-M stock prepared in 0.1-Mm sodium hydrosulfite [Sigma-Aldrich, St. Louis, MO, USA]) was added to the protein (final concentration = 100 mM) and incubated for 10 min to reduce the fluorescence emission from hydrophilic tryptophans. To measure the concentration–dependent effects of NS on tryptophan fluorescence, 1 μl of NS from each 100× stock solution was sequentially added to the NaI-equilibrated protein and thoroughly mixed to achieve concentrations from 0.01 to 50 μM. […]

Row | Compound | Hill slope (ELIC-α1GABAAR [1]; 3β-OH NS, MQ290 1 μM) | potentiation of GABA-elicited currents (α1β3 GABAA receptors) | potentiating effect with α1(Q242L) mutation [2] | Hill slope (ELIC-α1GABAAR [1]; 3α-OH NS, MQ290 3 μM) | further results
1 | CC(=O)[C@H]1CCC2C3CC[C@H]4C[C@@](C)(O)CC[C@]4(C)C3CC[C@@]21C (stereo partly drawn) [Epi-GX, epi-ganaxolone] | −0.67 ± 0.30 | do not | – | – | –
2 | CC(=O)[C@H]1CCC2C3CC[C@@H]4C[C@@H](O)CC[C@]4(C)C3CC[C@@]21C (stereo partly drawn) [Epi-PREG, Epi-pregnanolone] | −0.77 ± 0.42 | potentiates | prevented | – | –
3 | CC(=O)[C@H]1CC[C@H]2[C@@H]3CC[C@H]4C[C@](C)(O)CC[C@]4(C)[C@H]3CC[C@]12C [GX, ganaxolone] | – | – | – | −1.57 ± 0.26 | –
4 | CO[C@H]1CCC2C3=CC=C4C[C@H](O)CC[C@]4(C)C3=CC[C@@]21C (stereo partly drawn) [MQ290] | – | potentiates | eliminated | – | reduction of maximal MQ290 FRET signal in W246L receptors (ELIC-α1^W246LGABAAR): ~ 90% and 90%; MQ290 FRET signal in Q242L mutants (ELIC-α1^Q242LGABAAR): significantly reduced; prevention of KK200 photolabelling of TM3 (Y309) (ELIC-α1GABAAR [3]): significantly different than control; also recorded: prevented; EC50 (α1β3 GABAA receptors): 1 to 10 µM
5 | CC(=O)[C@H]1CC[C@H]2[C@@H]3CC[C@@H]4C[C@H](O)CC[C@]4(C)[C@H]3CC[C@]12C [PREG, pregnanolone] | – | – | – | −1.02 ± 0.35 | –
6 | CO[C@H]1CCC2C3CC[C@H]4C[C@H](O)CC[C@]4(C)C3CC[C@@]21C (stereo partly drawn) [YX03] | – | enhances; also recorded: potentiates | blocked | −0.98 ± 0.37 | prevention of AlloP induced quenching (ELIC-α1GABAAR [4]): partially prevents; quenching of ELIC-α1GABAAR tryptophan fluorescence (ELIC-α1GABAAR [4]; YX03 10 and 30 µM): absent; also recorded: does not quench
